Results published in patent US20230303712A1, “METHODS OF TREATING GLIOBLASTOMA” (Ramot at Tel-Aviv University Ltd., priority 2020, published 2023).

Assays:
primary human microglia = assay: Nitric oxide secretion evaluation; format: cell-based; settings: added to rSELP; SELPi 0.5 µM, antibodies 2.5 µg/ml, 24 h
Procedure: Nitric oxide secretion evaluation. Primary human/murine microglia (1 × 10^5 cells/ml) were seeded in PLL-coated plates. Twenty-four hours post-seeding, cells were treated with: 0% serum DMEM, 0% serum DMEM supplemented rSELP (1.5 µg/ml), 0% serum DMEM exposed to rSELP and SELPi (0.5 µM), 0% serum DMEM exposed to rSELP and anti-PSGL-1 neutralizing antibody (2.5 µg/ml), 0% serum DMEM exposed to rSELP and anti-CD44 neutralizing antibody (2.5 µg/ml), or 0% serum DMEM exposed to rSELP and anti-CD24 neutralizing antibody (2.5 µg/ml) for 24 h. Alternatively, macrophages were seeded in 96 well plates (5 × 10^5 cells/ml) treated with macrophages medium, macrophages medium supplemented with rSELP (3.5 µg/ml), macrophages medium supplemented with rSELP and SELPi (0.5 µM), macrophages medium supplemented with rSELP and anti-PSGL-1 neutralizing antibody (2.5 µg/ml), macrophages medium supplemented with rSELP and anti-CD44 neutralizing antibody (2.5 µg/ml) or macrophages medium supplemented with rSELP and anti-CD24 neutralizing antibody (2.5 µg/ml) for 24 h. Medium was then collected for evaluation of nitrite levels by the Total Nitric Oxide and Nitrate/Nitrite Parameter Assay Kit. Optical density was measured by a SpectraMax M5e multi-detection microplate reader system (Molecular Devices).

[1] = system: human GB cells (PD-GB4, U251, PD-GB 1, PD-GB3); assay: 3D spheroid invasion in Matrigel, human GB cells co-cultured with human microglia; format: cell-based
Procedure: Tumor spheroids. Tumor spheroids were prepared from mCherry/iRFP/GFP-labeled patient-derived, human U251 or murine GB cells (GL261, iAGR53, PNp53, EGFRviii-shP16), either alone or co-cultured with unlabeled primary human/murine microglia (4:1 ratio), using our modified hanging-drop method, as we previously described. For assessment of cell invasion, GB spheroids (4,000 cells/sphere) were embedded in Matrigel (Corning), seeded in a 96-well plate, and incubated with complete DMEM or complete DMEM supplemented with SELPi (0.5 µM). […] For FACS analysis, GB spheroids (8,000 cells/sphere) were embedded in Matrigel, seeded in a 12-well plate, and treated with complete DMEM, 0% serum microglia medium or microglia CM for 24-48 h. Cells were then recovered using Cell Recovery Solution (Corning) and further analyzed by FACS.

[2] = system: bone marrow derived macrophages (BMDM); assay: Flow cytometry of PSGL-1, CD206, CD38 on bone marrow derived macrophages; format: cell-based, murine
Procedure: Primary murine bone marrow-derived macrophages (BMDM) isolation. Bone marrow cells were freshly isolated from the tibias and the femurs of 8-12 weeks old C57BL/6 mice (Envigo CRS, Israel). Bone marrow cells were extracted using 25-gauge syringe and passed through a 70 µm nylon strainer (Corning, Israel). For macrophages differentiation cells were incubated with 50 ng/ml recombinant murine GM-CSF for one week. The medium was replaced 4 days post cells isolation. Cells were tested for CD11b and F4/80 expression using flow cytometry.
Flow cytometry. For flow cytometry assays, cells were harvested using a cell scraper, and were then washed with PBS followed by additional washes with PBS supplemented with 1% BSA and 5 mM EDTA (FACS buffer). Tumor spheroids were recovered from Matrigel using Cell Recovery Solution (Corning) and washed with FACS buffer. To validate the purity of the microglia preparations, CD11b isolated cells or human microglia were incubated with TMEM119 and P2Y12-labeled antibodies for 1 h. For human TMEM119, primary antibody was unlabeled and cells were washed and incubated with secondary, Alexa 488 conjugated antibody. To assess P-Selectin and PSGL-1 expression, GB cells and microglia were seeded alone, co-cultured in a 2D petri dish, or grown as spheroids seeded in Matrigel. Cells were treated with control medium or CM for 48 h. They were then incubated with mouse anti-human P-Selectin antibody for 1 h on ice, and then were washed, and incubated with Alexa-488 labeled anti-mouse IgG binding protein for 1 h on ice. Alternatively, cells were incubated with rat anti-human PSGL antibody, and then were washed, and incubated with goat anti-rat, Alexa-488 labeled antibody for 1 h on ice. […] Fluorescence intensity was assessed using either an Attune flow cytometer (Life Technologies) or a Gallios™ flow cytometer (Beckman Coulter, USA) and the results were analyzed by Kaluza software (Beckman Coulter, USA).

[3] = rSELP, or SELPi added to rSELP containing medium

SMILES: COc1ccc(C2CC(c3c(O)cc(C)oc3=O)=NCCS2)c(OC)c1 (stereo not drawn) [SELPi, 3-[7-(2,4-Dimethoxyphenyl)-2,3,6,7-tetrahydro-1,4-thiazepin-5-yl]-4-hydroxy-6-methyl-2H-pyran-2-one]
- restoration of NO levels (primary human microglia): restored
- 3D spheroid invasion ([1]; PD-GB4 GB cells with human microglia, 0.5 µM SELPi or SELP knockdown, 72 h): reduced invasion
- 3D spheroid invasion, further human GB models ([1]; human U251, PD-GB 1, PD-GB3): effect of SELPi on GB spheroids was observed
- PSGL-1 expression ([2]; rSELP and GB CM, or SELPi added to GB CM): reduced
- CD38 expression [2, 3]: elevated
- CD206 expression [2, 3]: reduced
